From patent US20260097037A1, “FUSED RING COMPOUND HAVING GLP-1 RECEPTOR AGONIST EFFECT” (Shionogi & Co., Ltd., priority 2022, published 2026)

Biological target: T1, Human GLP-1 receptor stably expressing cells (hGLP-1R/CHO-K1 cells) (Homo sapiens, UniProt P43220)
T1 construct: expressed in transfected cells
Test: Measurement of GLP-1 receptor agonist activity (cAMP assay)
Assay type: cell-based
Details: for Emax: CHO-K1, maximum effect, cAMP with 2 nM human GLP-1 (7-36) = 100%, DMSO only = 0%, read-out: Emax; for EC50: increase in cAMP concentration in hGLP-1R/CHO-K1 cells, 37° C. 1 hour
Description: Test Example 1: Measurement of GLP-1 Receptor Agonist Activity
Human GLP-1 receptor stably expressing cells (hGLP-1R/CHO-K1 cells) are cultured in an a-MEM medium (Sigma) containing 10% FBS (Hyclone), 2% GlutaMAX (Gibco), 1% G418 (Nacalai Tesque), and 1% Penicillin-Streptomycin Mixed Solution (Sigma) at 37° C. under 5% CO2 conditions, and recovered by treating a 10 fold diluted 5.0 g/1-trypsin/5.3 mmol/1-EDTA solution (Nacalai Tesque) and cryopreserved.
A DMSO solution containing the compound of the present invention or human GLP-1 (7-36) (Phoenix Pharmaceuticals) is dispensed into a 384-well microplate (Greiner) at 62.5 nL/well, and in addition, 400 μM Forskolin (Nacalai Tesque) is dispensed therein at 7.5 nL/well. Subsequently, the frozen GLP-1 R/CHO-K1 cells are thawed in a thermostatic bath at 37° C., suspended in HBSS buffer (GIBCO) containing 0.1% BSA (Sigma), 20 mM HEPES, 0.1 mM IBMX (Sigma), and 0.2 mM RO20-1724 (Calbiochem) at 2×10^4 cells/mL, and the cell suspension is added at 6 μL/well. The solution was incubated at 37° C. for 1 hour and intracellular cAMP concentration is measured using cAMP Gs dynamic kit (Cisbio) according to the protocol attached to the product. Specifically, a cAMP-d2/Anti-cAMP-Cryptate (1/1) mixture solution is added in a total amount of 6 μL/well, and is incubated at room temperature for 1 hour, and then, time-resolved fluorescence is measured using PHERAstar (BMG Labtech).
Assuming that the cAMP concentration when human GLP-1 (7-36) is dispensed to a final concentration of 2 nM is 100% and the cAMP concentration when only DMSO is dispensed is 0%, the 50% effective concentration (EC50) and the maximum effect (Emax) of the compound of the present invention are calculated using an increase in the cAMP concentration as an index, using TIBCO Spotfire (TIBCO Software). The dilution concentration or the dilution solvent are changed as necessary.
The compounds of the present invention were tested essentially as described above.

T1 sequence (P43220 24-463): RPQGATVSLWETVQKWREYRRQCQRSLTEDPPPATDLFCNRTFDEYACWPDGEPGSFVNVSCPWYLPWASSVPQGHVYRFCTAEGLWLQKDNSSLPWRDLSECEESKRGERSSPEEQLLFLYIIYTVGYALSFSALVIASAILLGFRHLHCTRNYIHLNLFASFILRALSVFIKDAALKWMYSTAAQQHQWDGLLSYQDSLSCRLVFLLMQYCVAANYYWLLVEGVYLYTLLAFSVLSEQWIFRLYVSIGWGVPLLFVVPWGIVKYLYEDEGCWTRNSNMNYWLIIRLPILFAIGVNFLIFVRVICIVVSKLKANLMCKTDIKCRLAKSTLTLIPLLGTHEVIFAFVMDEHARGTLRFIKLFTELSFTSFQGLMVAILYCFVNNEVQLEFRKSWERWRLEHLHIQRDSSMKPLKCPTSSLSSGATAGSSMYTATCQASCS

Row | Emax [%] | EC50 [nM] | SMILES
1 | 93.3 | 4.29 | C[C@H]1c2nc(OCc3ccc(Cl)cc3F)c(C(F)(F)F)cc2CCN1Cc1nc2c(-c3cccnc3)cc(C(=O)O)cc2n1C[C@@H]1CCO1 [Compound I-190]
2 | 110 | 0.0683 | COc1cc(C(=O)O)cc2c1nc(CN1CCc3cc(Cl)c(OCc4ccc(OC(F)F)cc4F)nc3[C@@H]1C)n2C[C@@H]1CCO1 [Compound I-071]
3 | 88 | 26 | Cc1noc(COc2nc3c(cc2C(F)(F)F)CCN(Cc2nc4ccc(C(=O)O)cc4n2C[C@@H]2CCO2)[C@H]3C)n1 [Compound I-162]
4 | 103 | 0.249 | C[C@H]1c2nc(OCc3ccc(Cl)cc3F)c(Cl)cc2CCN1Cc1nc2ccc(C(=O)O)nc2n1C[C@@H]1CCO1 [Compound I-034]
5 | 112 | 0.0693 | C[C@H]1c2nc(NCc3cc(F)c(Cl)cc3F)c(C(F)(F)F)cc2CCN1Cc1nc2c(Cl)cc(C(=O)O)cc2n1C[C@@H]1CCO1 [Compound I-176]
6 | 110 | 0.314 | C[C@H]1c2nc(OCc3ncc(Cl)cc3F)c(C(F)(F)F)cc2CCN1Cc1nc2ccc(C(=O)O)cc2n1C[C@@H]1CCO1 [Compound I-105]
7 | 110 | 0.0683 | C[C@H]1c2nc(OCc3ccc(Cl)cc3Cl)c(C(F)F)cc2CCN1Cc1nc2c(F)cc(C(=O)O)cc2n1C[C@@H]1CCO1 [Compound I-111]
8 | 135 | 0.151 | C[C@H]1c2nc(OCc3c(F)cc(F)cc3F)c(C#N)cc2CCN1Cc1nc2c(Cl)cc(C(=O)O)cc2n1C[C@@H]1CCO1 [Compound I-183]
9 | 128 | 0.171 | C[C@H]1c2nc(OCc3ccc(Cl)c4ccoc34)c(C(F)(F)F)cc2CCN1Cc1nc2ccc(C(=O)O)cc2n1C[C@@H]1CCO1 [Compound I-014]
10 | 117 | 0.469 | C[C@H]1c2nc(OCc3cc(F)c(Cl)cc3F)c(C(F)F)cc2CCN1Cc1nc2ccc(C(=O)O)nc2n1C[C@@H]1CCO1 [Compound I-102]
11 | 96 | 14.8 | CC1c2nc(OCc3ccc(Cl)cc3F)ncc2CCN1Cc1nc2ccc(C(=O)O)cc2n1C[C@@H]1CCO1 (stereo partly shown) [Compound I-078]
12 | 112 | 0.0833 | C[C@H]1c2nc(OCc3cc(F)c(Cl)cc3F)c(Cl)cc2CCN1Cc1nc2ccc(C(=O)O)cc2n1C[C@@H]1CCO1 [Compound I-021]
13 | 131 | 0.0345 | C[C@H]1c2nc(OCc3ccc(Cl)cc3F)c(Cl)cc2CCN1Cc1nc2ccc(C(=O)O)c(F)c2n1C[C@@H]1CCO1 [Compound I-045]
14 | 96.3 | 6.34 | C[C@H]1c2c(ccc3c2OC(C)(c2ccc(Cl)cn2)O3)CCN1Cc1nc2ccc(C(=O)O)cc2n1C[C@@H]1CCO1 (stereo partly shown) [Compound I-093]
15 | 106 | 0.0274 | COc1cc(C(=O)O)cc2c1nc(CN1CCc3cc(Cl)c(OCc4cc(F)c(Cl)cc4F)nc3[C@@H]1C)n2C[C@@H]1CCO1 [Compound I-072]
16 | 107 | 3.89 | C[C@H]1c2cc(OCc3ccc(F)cc3F)c(C(F)F)cc2CCN1Cc1nc2ccc(C(=O)O)cc2n1C[C@@H]1CCO1 [Compound I-008]
17 | 111 | 0.493 | C[C@H]1c2c(cc(C(F)(F)F)c3c2O[C@@](C)(c2ccc(Cl)cn2)O3)CCN1Cc1nc2c(Cl)cc(C(=O)O)cc2n1C[C@@H]1CCO1 [Compound I-158]
18 | 128 | 0.0122 | COc1cc(C(=O)O)cc2c1nc(CN1CCc3cc(C(F)F)c(OCc4ccc(Cl)cc4F)nc3[C@@H]1C)n2C[C@@H]1CCO1 [Compound I-128]
19 | 122 | 0.105 | C[C@H]1c2nc(OCc3ccc(F)cc3F)c(Cl)cc2CCN1Cc1nc2ccc(C(=O)O)c(F)c2n1C[C@@H]1CCO1 [Compound I-037]

Row | Emax [%] | EC50 [nM] | SMILES
20 | 105 | 0.243 | COc1cc(C(=O)O)cc2c1nc(CN1CCc3cc(C(F)(F)F)c4c(c3[C@@H]1C)O[C@@](C)(c1ccc(Cl)cc1F)O4)n2C[C@@H]1CCO1 [Compound I-170]
21 | 92.3 | 0.195 | C[C@H]1c2nc(OCc3ccc(C#N)cc3F)c(C(F)F)cc2CCN1Cc1nc2ccc(C(=O)O)cc2n1C[C@@H]1CCO1 [Compound I-063]
22 | 113 | 0.0195 | COc1cc(C(=O)O)cc2c1nc(CN1CCc3cc(C(F)(F)F)c(NCc4cc(F)c(Cl)cc4F)nc3[C@@H]1C)n2C[C@@H]1CCO1 [Compound I-177]
23 | 127 | 0.208 | C[C@H]1c2nc(OCc3ccc(F)cc3)c(Cl)cc2CCN1Cc1nc2ccc(C(=O)O)c(F)c2n1C[C@@H]1CCO1 [Compound I-042]
24 | 88 | 7.91 | C[C@H]1c2cc(OCc3ccccc3Cl)c(C(F)F)cc2CCN1Cc1nc2ccc(C(=O)O)cc2n1C[C@@H]1CCO1 [Compound I-007]
25 | 124 | 0.0625 | COc1cc(C(=O)O)cc2c1nc(CN1CCc3cc(C#N)c(OCc4ccc(Cl)cc4)nc3[C@@H]1C)n2C[C@@H]1CCO1 [Compound I-144]
26 | 106 | 0.339 | C[C@H]1c2nc(OCc3ccc(Cl)cc3F)c(C#N)cc2CCN1Cc1nc2ccc(C(=O)O)cc2n1C[C@@H]1CCO1 [Compound I-136]
27 | 113 | 0.0706 | C[C@H]1c2nc(OCc3ccc(F)cc3F)c(C(F)F)cc2CCN1Cc1nc2c(F)cc(C(=O)O)cc2n1C[C@@H]1CCO1 [Compound I-110]
28 | 101 | 0.0658 | COc1cc(C(=O)O)cc2c1nc(CN1CCc3cc(Cl)c(OCc4ccc(F)cc4)nc3[C@@H]1C)n2C[C@@H]1CCO1 [Compound I-073]
29 | 111 | 0.0635 | C[C@H]1c2nc(OCc3cc(F)c(Cl)cc3F)c(C(F)F)cc2CCN1Cc1nc2ccc(C(=O)O)c(F)c2n1C[C@@H]1CCO1 [Compound I-126]
30 | 118 | 0.0647 | C[C@H]1c2cc(OCc3c(F)cc(Cl)cc3F)c(Cl)cc2CCN1Cc1nc2ccc(C(=O)O)c(F)c2n1C[C@@H]1CCO1 [Compound I-043]
31 | 136 | 0.224 | C[C@H]1c2nc(OCc3ccc(Cl)cc3F)c(C#N)cc2CCN1Cc1nc2ccc(C(=O)O)c(F)c2n1C[C@@H]1CCO1 [Compound I-137]
32 | 102 | 16.1 | C[C@H]1c2cc(OCc3ccc(F)cc3)c(C(F)F)cc2CCN1Cc1nc2ccc(C(=O)O)cc2n1C[C@@H]1CCO1 [Compound I-011]
33 | 111 | 0.437 | C[C@H]1c2nc(OCc3c(F)cc(Cl)cc3F)c(Cl)cc2CCN1Cc1nc2ccc(C(=O)O)nc2n1C[C@@H]1CCO1 [Compound I-033]
34 | 108 | 0.469 | C[C@H]1c2nc(OCc3c(F)cc(Cl)cc3F)c(C(F)F)cc2CCN1Cc1nc2ccc(C(=O)O)nc2n1C[C@@H]1CCO1 [Compound I-101]
35 | 113 | 0.043 | C[C@H]1c2nc(OCc3ccc(C#N)cc3F)c(C(F)F)cc2CCN1Cc1nc2c(F)cc(C(=O)O)cc2n1C[C@@H]1CCO1 [Compound I-115]
36 | 116 | 0.122 | C[C@H]1c2nc(OCc3ccc(F)cc3F)c(Cl)cc2CCN1Cc1nc2c(F)cc(C(=O)O)cc2n1C[C@@H]1CCO1 [Compound I-083]
37 | 124 | 0.158 | Cc1ccc(COc2nc3c(cc2Cl)CCN(Cc2nc4ccc(C(=O)O)c(F)c4n2C[C@@H]2CCO2)[C@H]3C)cc1 [Compound I-035]
38 | 119 | 0.173 | C[C@H]1c2nc(OCc3ccc(F)cc3Cl)c(C#N)cc2CCN1Cc1nc2c(Cl)cc(C(=O)O)cc2n1C[C@@H]1CCO1 [Compound I-182]
